PubChem BioAssay AID256 (DTP/NCI, 2004)
Values joined by “and” are separate entries in the source; they are usually repeats but may differ in a detail not shown here. Equal entries are not always repeated. Inconclusive results and toxic doses are left out. Rule for the calls: active = survival T/C of 150% or more; inactive = T/C below 125% in these data.

System: CD2F1 mice, L1210 leukemia ip, survival T/C
Experiment: NCI In Vivo Anticancer Drug Screen. Data for tumor model L1210 Leukemia (intraperitoneal) in CD2F1 (CDF1) mice
Details: endpoint: mean survival time, higher = longer survival
Outline: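 Tumor-bearing mice (transplanted tumor) were split into treated and vehicle control groups, and the measured endpoint of each treated group was divided by that of its vehicle controls.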

[1] = dose: 12.5 mg/kg/injection, schedule: Q01DX009 (ip), vehicle: saline with Tween-80
[2] = dose: 25.0 mg/kg/injection, schedule: Q01DX009 (ip), vehicle: saline with Tween-80
[3] = dose: 50.0 mg/kg/injection, schedule: Q01DX009 (ip), vehicle: saline with Tween-80
[4] = dose: 100.0 mg/kg/injection, schedule: Q01DX009 (ip), vehicle: saline with Tween-80
[5] = dose: 100.0 mg/kg/injection, schedule: Q04DX003 (ip), vehicle: saline with Tween-80
[6] = dose: 200.0 mg/kg/injection, schedule: Q04DX003 (ip), vehicle: saline with Tween-80
[7] = dose: 400.0 mg/kg/injection, schedule: Q04DX003 (ip), vehicle: saline with Tween-80
[8] = dose: 200.0 mg/kg/injection, schedule: Q01DX009 (ip), vehicle: saline with Tween-80
[9] = dose: 400.0 mg/kg/injection, schedule: Q01DX009 (ip), vehicle: saline with Tween-80

Measured: T/C

N=[N+]=CC(=O)CCC(NC(=O)C(CCC(=O)C=[N+]=N)NC(=O)CCC(N)C(=O)O)C(=O)O (stereo unspecified)
active: dose: 0.1 mg/kg/injection, schedule: Q01DX009 (ip), vehicle: other 152 % of control | dose: 0.18 mg/kg/injection, schedule: Q01DX017 (ip), vehicle: saline 157 % of control | dose: 6.25 mg/kg/injection, schedule: Q04DX003 (ip), vehicle: water 155 % of control | dose: 7.5 mg/kg/injection, schedule: Q04DX003 (ip), vehicle: other 162 % of control and 165 % of control and 168 % of control | dose: 12.5 mg/kg/injection, schedule: Q04DX003 (ip), vehicle: water 160 % of control | dose: 15.0 mg/kg/injection, schedule: Q04DX003 (ip), vehicle: other 168 % of control and 177 % of control and 191 % of control | dose: 25.0 mg/kg/injection, schedule: Q04DX003 (ip), vehicle: water 178 % of control | dose: 25.0 mg/kg/injection, schedule: Q08DX002 (ip), vehicle: water 169 % of control | dose: 30.0 mg/kg/injection, schedule: Q04DX003 (ip), vehicle: other 178 % of control and 190 % of control and 191 % of control | dose: 50.0 mg/kg/injection, schedule: Q08DX002 (ip), vehicle: water 165 % of control | dose: 60.0 mg/kg/injection, schedule: Q04DX003 (ip), vehicle: other 155 % of control and 196 % of control and 203 % of control | dose: 100.0 mg/kg/injection, schedule: Q08DX002 (ip), vehicle: water 158 % of control
inactive: dose: 0.01 mg/kg/injection, schedule: Q01DX009 (ip), vehicle: water 95 % of control | dose: 0.03 mg/kg/injection, schedule: Q01DX009 (ip), vehicle: water 96 % of control | dose: 0.05 mg/kg/injection, schedule: Q01DX009 (ip), vehicle: other 115 % of control and 112 % of control | dose: 0.05 mg/kg/injection, schedule: Q01DX009 (ip), vehicle: water 115 % of control | dose: 0.05 mg/kg/injection, schedule: Q01DX009 (oral), vehicle: water 103 % of control | dose: 0.05 mg/kg/injection, schedule: Q01DX009 (sc), vehicle: water 116 % of control | dose: 0.1 mg/kg/injection, schedule: Q01DX009 (oral), vehicle: water 107 % of control | dose: 0.2 mg/kg/injection, schedule: Q01DX009 (oral), vehicle: water 120 % of control | dose: 0.2 mg/kg/injection, schedule: Q01DX009 (sc), vehicle: water 101 % of control | dose: 0.3 mg/kg/injection, schedule: Q01DX017 (ip), vehicle: saline 111 % of control | dose: 0.4 mg/kg/injection, schedule: Q01DX009 (oral), vehicle: water 90 % of control | dose: 0.4 mg/kg/injection, schedule: Q01DX009 (sc), vehicle: water 98 % of control | dose: 0.5 mg/kg/injection, schedule: Q01DX009 (ip), vehicle: other 116 % of control and 96 % of control and 97 % of control | dose: 0.5 mg/kg/injection, schedule: Q01DX017 (ip), vehicle: saline 112 % of control | dose: 1.0 mg/kg/injection, schedule: Q01DX009 (ip), vehicle: other 87 % of control | dose: 1.6 mg/kg/injection, schedule: Q03HX024 (ip), vehicle: water 100 % of control | dose: 3.1 mg/kg/injection, schedule: Q03HX008 (ip), vehicle: water 110 % of control | dose: 3.1 mg/kg/injection, schedule: Q03HX024 (ip), vehicle: water 87 % of control | dose: 100.0 mg/kg/injection, schedule: Q01DX001 (oral), vehicle: water 124 % of control | dose: 100.0 mg/kg/injection, schedule: Q01DX001 (sc), vehicle: water 96 % of control | dose: 100.0 mg/kg/injection, schedule: Q04DX003 (ip), vehicle: water 109 % of control | dose: 200.0 mg/kg/injection, schedule: Q01DX001 (ip), vehicle: water 118 % of control | dose: 200.0 mg/kg/injection, schedule: Q01DX001 (oral), vehicle: water 121 % of control | dose: 400.0 mg/kg/injection, schedule: Q01DX001 (ip), vehicle: water 92 % of control

O=P(Cc1ccccc1)(Cc1ccccc1)c1ccccc1
inactive: dose: 75.0 mg/kg/injection, schedule: Q01DX001 (ip), vehicle: saline 95 % of control | dose: 150.0 mg/kg/injection, schedule: Q01DX001 (ip), vehicle: saline 93 % of control | dose: 300.0 mg/kg/injection, schedule: Q01DX001 (ip), vehicle: saline 100 % of control

O=Cc1ccc([N+](=O)[O-])s1
inactive: dose: 3.12 mg/kg/injection, schedule: Q01DX009 (ip), vehicle: saline with Tween-80 102 % of control and 108 % of control | dose: 6.25 mg/kg/injection, schedule: Q01DX009 (ip), vehicle: saline with Tween-80 96 % of control and 102 % of control | [1] 97 % of control and 98 % of control | [2] 104 % of control and 105 % of control | [3] 103 % of control and 107 % of control | [4] 109 % of control

CCOC(=O)C(Cc1ccccc1Cl)(NC(C)=O)C(=O)OCC
inactive: [5] 100 % of control | [6] 102 % of control | [7] 91 % of control

NC(=S)N1N=C(c2cccc([N+](=O)[O-])c2)CCC1=O
inactive: [5] 111 % of control | [6] 111 % of control | [7] 107 % of control

COc1ccc(OC)c(OC)c1CC(C)N (stereo unspecified)
inactive: dose: 25.0 mg/kg/injection, schedule: Q04DX002 (ip), vehicle: saline 108 % of control | dose: 50.0 mg/kg/injection, schedule: Q04DX002 (ip), vehicle: saline 97 % of control | dose: 100.0 mg/kg/injection, schedule: Q04DX002 (ip), vehicle: saline 91 % of control and 97 % of control

CN(C)Cc1ccc(C(C)(C)C)cc1Br
inactive: dose: 12.5 mg/kg/injection, schedule: Q01DX009 (ip), vehicle: water 98 % of control | dose: 25.0 mg/kg/injection, schedule: Q01DX009 (ip), vehicle: water 95 % of control | dose: 50.0 mg/kg/injection, schedule: Q01DX009 (ip), vehicle: water 98 % of control | dose: 100.0 mg/kg/injection, schedule: Q01DX009 (ip), vehicle: water 98 % of control | dose: 200.0 mg/kg/injection, schedule: Q01DX009 (ip), vehicle: water 104 % of control

Cc1c2[nH]c(c1CCC(=O)O)/C=c1\[n-]/c(c(C)c1CCC(=O)O)=C\c1[n-]c(c(C)c1C(C)O)/C=c1\[nH]/c(c(C)c1C(C)O)=C\2.[Cl][Pt+2][Cl] (stereo unspecified)
inactive: dose: 12.5 mg/kg/injection, schedule: Q04DX003 (ip), vehicle: Klucel (hydroxypropylcellulose) (HPC) 88 % of control | dose: 25.0 mg/kg/injection, schedule: Q04DX003 (ip), vehicle: Klucel (hydroxypropylcellulose) (HPC) 90 % of control | dose: 50.0 mg/kg/injection, schedule: Q04DX003 (ip), vehicle: Klucel (hydroxypropylcellulose) (HPC) 93 % of control | dose: 100.0 mg/kg/injection, schedule: Q04DX003 (ip), vehicle: Klucel (hydroxypropylcellulose) (HPC) 88 % of control

CC(C)(C)C(NO)C(O)N1CCCCC1 (stereo unspecified)
inactive: dose: 100.0 mg/kg/injection, schedule: Q01DX001 (ip), vehicle: saline 97 % of control | dose: 200.0 mg/kg/injection, schedule: Q01DX001 (ip), vehicle: saline 95 % of control

CC1=NC2(CCCCC2)C[N+]1(Cc1ccccc1)Cc1ccccc1
inactive: dose: 25.0 mg/kg/injection, schedule: Q01DX009 (ip), vehicle: acetone 101 % of control | dose: 50.0 mg/kg/injection, schedule: Q01DX009 (ip), vehicle: acetone 97 % of control

CC(=Nc1ccccc1)C1=C(O)C(Cc2ccccc2)NC1=O (stereo unspecified)
inactive: [1] 98 % of control and 103 % of control | dose: 12.5 mg/kg/injection, schedule: Q04DX002 (ip), vehicle: saline with Tween-80 100 % of control | [2] 102 % of control and 111 % of control | dose: 25.0 mg/kg/injection, schedule: Q04DX002 (ip), vehicle: saline with Tween-80 103 % of control | [3] 118 % of control and 108 % of control | dose: 50.0 mg/kg/injection, schedule: Q04DX002 (ip), vehicle: saline with Tween-80 103 % of control | [4] 110 % of control

Cc1ccc(S(=O)(=O)N(C)N=O)cc1
inactive: [4] 89 % of control | [5] 97 % of control | [8] 106 % of control | [6] 102 % of control | [9] 102 % of control | [7] 107 % of control

CCOC(=O)C1=C(C)NC(C)=C(C(=O)OCC)C1c1ccc(OC)cc1
inactive: [4] 104 % of control | [5] 97 % of control | [8] 101 % of control | [6] 94 % of control | [9] 97 % of control | [7] 92 % of control
